# Read-outs that look alike come from different tables or passages of the source. Marks after values point to notes of the source that are not given here.
# What was measured:
# [1] = Approximate solubility estimates (solvent incremental addition, visual observation); format: physicochemical; conditions: for solubility: thermodynamic from solid
# Experimental: Approximate solubility estimates of Compound 1 Lot I were ascertained using the solvent incremental addition method and visual observation (Table 2.1). […] Approximate solubilities were calculated based on the total solvent used to achieve a solution, as judged by visual observation. Actual solubilities may be greater because of the volume of solvent portions utilized or a slow rate of dissolution. […] If dissolution occurred at the first aliquot, the value was reported as “>”
# [2] = Exposure experiments at high relative humidity; format: physicochemical; conditions: RT, 17 days
# Experimental: In a series of exposure experiments, Compound 1 Lot I was exposed to high relative humidity. Generally, approx. 50 mg Compound 1 was transferred to vials, and the vials were placed open in chambers containing saturated aqueous solutions of various salts, which are known to generate various relative humidity levels in the chambers. See, e.g., “Standard Practice for Maintaining Constant Relative Humidity by Means of Aqueous Solutions” ASTM Standard E 104-85 (1996); “Humidity Fixed Points of Binary Saturated Aqueous Solutions” Greenspan, L. J. Res. Natl. Bur. Stand., Sect. A […], 81A, 89-96; “Saturated Salt Solutions for Maintaining Specified Relative Humidities” Nyqvist, H. E. Int. J. Pharma. Technol. Prod. Manuf. 1983, 4, 47-48; and “Evaluation of Relative Humidity Values for Saturated Aqueous Salt Solutions Using Osmotic Coefficients Between 50 and 100° C.” Moisture Humidity, Proc. Int. Symp. 1985, 577-96.
# [3] = Interconversion slurry experiments; conditions: interconversion slurries, ambient temperature to 65° C.
# Experimental: Mixtures of Form H and Form I with Form B were utilized in these interconversion slurry experiments. […] The interconversion slurries were performed at ambient and elevated (65° C.) temperatures in various solvents and solvent mixtures.
# [4] = Dynamic vapor sorption (DVS); format: physicochemical; conditions: for Hysteresis: in % (unit assumed); for weight gain during sorption: DVS; for XRPD pattern of the post-DVS sample: after DVS experiment
# Experimental: Moisture sorption/desorption data were collected on a Surface Measurement System DVS Intrinsic instrument. Samples were not dried prior to analysis. Sorption and desorption data were collected over a range from 5% to 95% RH to 5% RH at 10% RH increments under a nitrogen purge. The equilibrium criterion used for analysis was less than 0.0100% weight change in 5 minutes with a maximum equilibration time of 3 hours. Data were not corrected for the initial moisture content of the samples.
# [5] = Stability stress studies on Form B (RH/temperature exposure, XRPD); format: physicochemical
# Experimental: Stability stress studies were conducted on Form B by exposing samples to three conditions: 57.5% RH/RT; 97.3% RH/RT, and 75% RH/40° C. and collecting XRPD data at two time points (14 and 28 days).
# [6] = Slurry in water at ambient temperature (XRPD); format: physicochemical; conditions: 5 days
smiles,measurement,setting,value
CN(C)C(=O)Nc1cc(Oc2cnc3nc(Nc4cc(C(F)(F)F)cn(C)c4=O)n(C)c3c2C#N)ccn1 [Compound 1 Lot II],solubility,"[1]; 1-BuOH:H2O (90:10), 80 °C, organic solvent or mixture, 1-BuOH:H2O (90:10), aw = 0.82, 80° C., read-out: Solubility",4000 µg/mL
same,solubility,"[1]; 1-BuOH:H2O (96:4), 85 °C, organic solvent or mixture, 1-BuOH:H2O (96:4), aw = 0.49, 85° C., read-out: Solubility",1000 µg/mL
CN(C)C(=O)Nc1cc(Oc2cnc3nc(Nc4cc(C(F)(F)F)cn(C)c4=O)n(C)c3c2C#N)ccn1 [Compound 1 Lot I],XRPD Result,[2]; 75% RH,Forms B + C + larger peaks
same,weight gain,[2]; 75% RH,0.56% weight gain
same,XRPD Result,[2]; 97% RH,Forms B + C + peaks
same,weight gain,[2]; 97% RH,0.71% weight gain
same,solubility,"[1]; 2-butanone (MEK), organic solvent or mixture, 2-butanone (MEK), ambient, read-out: Solubility",1000 µg/mL
same,Solubility (mg/mL),"[1]; AcOH, ambient",>59^b mg/mL
same,solubility,"[1]; AcOH:H2O (20:80), aqueous with cosolvent or surfactant or cyclodextrin, AcOH:H2O (20:80), aw = 0.94, ambient, read-out: Solubility",1000 µg/mL
same,solubility,"[1]; AcOH:H2O (50:50), aqueous with cosolvent or surfactant or cyclodextrin, AcOH:H2O (50:50), aw = 0.84, ambient, read-out: Solubility",14000 µg/mL
same,solubility,"[1]; AcOH:H2O (85:15), organic solvent or mixture, AcOH:H2O (85:15), aw = 0.51, ambient, read-out: Solubility",> 51000 µg/mL
same,solubility,"[1]; CHCl3, organic solvent or mixture, CHCl3, ambient, read-out: Solubility",2000 µg/mL
same,solubility,"[1]; DMA, organic solvent or mixture, DMA, ambient, read-out: Solubility",8000 µg/mL
same,solubility,"[1]; DMSO, organic solvent or mixture, DMSO, ambient, read-out: Solubility",6000 µg/mL
same,solubility,"[1]; EtOAc, organic solvent or mixture, EtOAc, ambient, read-out: Solubility",< 1000 µg/mL
same,solubility,"[1]; EtOH:H2O (90:10), organic solvent or mixture, EtOH:H2O (90:10), aw = 0.49, ambient, read-out: Solubility",1000 µg/mL
same,solubility,"[1]; MIBK, organic solvent or mixture, MIBK, ambient, read-out: Solubility",< 1000 µg/mL
same,solubility,"[1]; MeCN, organic solvent or mixture, MeCN, ambient, read-out: Solubility",< 1000 µg/mL
same,solubility,"[1]; MeOH, organic solvent or mixture, MeOH, ambient, read-out: Solubility",< 1000 µg/mL
same,solubility,"[1]; MeOH:CHCl3 (50:50), organic solvent or mixture, MeOH:CHCl3 (50:50), ambient, read-out: Solubility",< 1000 µg/mL
same,solubility,"[1]; MeOH:DCM (1:3), organic solvent or mixture, MeOH:DCM (1:3), ambient, read-out: Solubility",37000 µg/mL
same,solubility,"[1]; MeOH:H2O (90:10), organic solvent or mixture, MeOH:H2O (90:10), aw = 0.29, ambient, read-out: Solubility",1000 µg/mL
same,solubility,"[1]; NMP, organic solvent or mixture, NMP, ambient, read-out: Solubility",8000 µg/mL
same,solubility,"[1]; TFE, organic solvent or mixture, TFE, ambient, read-out: Solubility",17000 µg/mL
same,solubility,"[1]; THF, organic solvent or mixture, THF, ambient, read-out: Solubility",< 1000 µg/mL
same,solubility,"[1]; acetic acid (AcOH), organic solvent or mixture, AcOH, ambient, read-out: Solubility",> 59000 µg/mL
same,solubility,"[1]; acetone, organic solvent or mixture, Acetone, ambient, read-out: Solubility",1000 µg/mL
same,solubility,"[1]; acetone:H2O (90:10), organic solvent or mixture, acetone:H2O (90:10), aw = 0.69, ambient, read-out: Solubility",2000 µg/mL
same,solubility,"[1]; i-PrOH, organic solvent or mixture, i-PrOH, ambient, read-out: Solubility",< 1000 µg/mL
same,solubility,"[1]; organic solvent or mixture, 10% water added to acetone, ethanol, and methanol, ambient, read-out: solubility after addition of 10% water",1000 to 2000 µg/mL
same,solubility,"[1]; organic solvent or mixture, in acetone, chloroform, MEK, and aprotic solvents DMSO, DMAc, and NMP, ambient, read-out: limited solubility",1000 to 8000 µg/mL
same,solubility,"[1]; toluene, organic solvent or mixture, toluene, ambient, read-out: Solubility",< 1000 µg/mL
same,solubility,"[1]; water, H2O, ambient, read-out: Solubility",< 1000 µg/mL
CN(C)C(=O)Nc1cc(Oc2cnc3nc(Nc4cc(C(F)(F)F)cn(C)c4=O)n(C)c3c2C#N)ccn1 [Form B],relative stability of anhydrous forms,[3],likely the most stable anhydrous form under the tested conditions
same,Desorp Mass Change (%),"[4]; DVS cycle 1, target RH 5%",−0.0297%
same,Sorp Mass Change (%),"[4]; DVS cycle 1, target RH 5%",0.0003%
same,Desorp Mass Change (%),"[4]; DVS cycle 1, target RH 15%",0.0109%
same,Sorp Mass Change (%),"[4]; DVS cycle 1, target RH 15%",0.0327%
same,Hysteresis,"[4]; DVS cycle 1, target RH 15%",−0.0218
same,Desorp Mass Change (%),"[4]; DVS cycle 1, target RH 25%",0.048%
same,Sorp Mass Change (%),"[4]; DVS cycle 1, target RH 25%",0.0627%
same,Hysteresis,"[4]; DVS cycle 1, target RH 25%",−0.0147
same,Desorp Mass Change (%),"[4]; DVS cycle 1, target RH 35%",0.0903%
same,Sorp Mass Change (%),"[4]; DVS cycle 1, target RH 35%",0.0974%
same,Hysteresis,"[4]; DVS cycle 1, target RH 35%",−0.0071
same,Desorp Mass Change (%),"[4]; DVS cycle 1, target RH 45%",0.1586%
same,Sorp Mass Change (%),"[4]; DVS cycle 1, target RH 45%",0.1439%
same,Hysteresis,"[4]; DVS cycle 1, target RH 45%",0.0147
same,Desorp Mass Change (%),"[4]; DVS cycle 1, target RH 55%",0.2045%
same,Sorp Mass Change (%),"[4]; DVS cycle 1, target RH 55%",0.1803%
same,Hysteresis,"[4]; DVS cycle 1, target RH 55%",0.0241
same,Desorp Mass Change (%),"[4]; DVS cycle 1, target RH 65%",0.2463%
same,Sorp Mass Change (%),"[4]; DVS cycle 1, target RH 65%",0.2227%
same,Hysteresis,"[4]; DVS cycle 1, target RH 65%",0.0235
same,weight gain during sorption,[4]; 5-95% RH,0.43%
same,XRPD pattern of the post-DVS sample,[4],consistent with Form B
same,hygroscopicity,[4]; judged from DVS sorption/desorption,non-hygroscopic
same,XRPD Result,"[5]; 57.5% RH/RT, 14 days",Form B
same,XRPD Result,"[5]; 57.5% RH/RT, 28 days",Form B
same,stability under stress conditions,"[5]; 57.5% RH/RT, 97.3% RH/RT, 75% RH/40° C., 14 and 28 days",stable at the tested stress conditions
same,XRPD Result,"[5]; 75.3% RH/40° C., 14 days",Form B
same,XRPD Result,"[5]; 75.3% RH/40° C., 28 days",Form B
same,XRPD Result,"[5]; 97.3% RH/RT, 14 days",Form B
same,XRPD Result,"[5]; 97.3% RH/RT, 28 days",Form B
same,solid form after slurry in water (XRPD),[6],remained unchanged
CN(C)C(=O)Nc1cc(Oc2cnc3nc(Nc4cc(C(F)(F)F)cn(C)c4=O)n(C)c3c2C#N)ccn1 [Form C],Desorp Mass Change (%),"[4]; DVS cycle 1, target RH 5%",0.028%
same,Sorp Mass Change (%),"[4]; DVS cycle 1, target RH 5%",0.005%
same,Desorp Mass Change (%),"[4]; DVS cycle 1, target RH 15%",1.354%
same,Sorp Mass Change (%),"[4]; DVS cycle 1, target RH 15%",1.314%
same,Hysteresis,"[4]; DVS cycle 1, target RH 15%",0.040
same,Desorp Mass Change (%),"[4]; DVS cycle 1, target RH 25%",1.757%
same,Sorp Mass Change (%),"[4]; DVS cycle 1, target RH 25%",1.741%
same,Hysteresis,"[4]; DVS cycle 1, target RH 25%",0.016
same,Desorp Mass Change (%),"[4]; DVS cycle 1, target RH 35%",1.927%
same,Sorp Mass Change (%),"[4]; DVS cycle 1, target RH 35%",1.912%
same,Hysteresis,"[4]; DVS cycle 1, target RH 35%",0.015
same,Desorp Mass Change (%),"[4]; DVS cycle 1, target RH 45%",2.061%
same,Sorp Mass Change (%),"[4]; DVS cycle 1, target RH 45%",2.017%
same,Hysteresis,"[4]; DVS cycle 1, target RH 45%",0.044
same,Desorp Mass Change (%),"[4]; DVS cycle 1, target RH 55%",2.161%
same,Sorp Mass Change (%),"[4]; DVS cycle 1, target RH 55%",2.100%
same,Hysteresis,"[4]; DVS cycle 1, target RH 55%",0.061
same,Desorp Mass Change (%),"[4]; DVS cycle 1, target RH 65%",2.240%
same,Sorp Mass Change (%),"[4]; DVS cycle 1, target RH 65%",2.178%
same,Hysteresis,"[4]; DVS cycle 1, target RH 65%",0.061
same,Desorp Mass Change (%),"[4]; DVS cycle 1, target RH 75%",2.323%
same,Sorp Mass Change (%),"[4]; DVS cycle 1, target RH 75%",2.262%
same,Hysteresis,"[4]; DVS cycle 1, target RH 75%",0.061
same,Desorp Mass Change (%),"[4]; DVS cycle 1, target RH 85%",2.437%
same,Sorp Mass Change (%),"[4]; DVS cycle 1, target RH 85%",2.375%
same,Hysteresis,"[4]; DVS cycle 1, target RH 85%",0.062
same,Desorp Mass Change (%),"[4]; DVS cycle 1, target RH 95%",2.620%
same,Sorp Mass Change (%),"[4]; DVS cycle 1, target RH 95%",2.620%
same,weight gain during sorption,[4]; 5-25% RH,1.74%
same,weight gain during sorption,[4]; 5-95% RH,2.6%
same,XRPD pattern of the post-DVS sample,[4],consistent with Form C with slight peak shifting
CN(C)C(=O)Nc1cc(Oc2cnc3nc(Nc4cc(C(F)(F)F)cn(C)c4=O)n(C)c3c2C#N)ccn1 [Form I],relative stability of anhydrous forms,[3]; listed as Compound 1 Form I,metastable form with respect to Form B
